From PubChem BioAssay (NCI)
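Briefly, cells in 96-well plates were exposed to five compound concentrations for 48 h, and endpoints were estimated by linear interpolation. At the GI50, growth is halved. TGI marks complete inhibition of growth.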

Key:
Test in all cases: NCI-60 cell line screen, 48 h
ACHN renal = system: ACHN renal
OVCAR-4 ovarian = system: OVCAR-4 ovarian
T-47D breast = system: T-47D breast
TK-10 renal = system: TK-10 renal
SK-MEL-28 melanoma = system: SK-MEL-28 melanoma
SK-OV-3 ovarian = system: SK-OV-3 ovarian
SK-MEL-2 melanoma = system: SK-MEL-2 melanoma
MDA-MB-231 breast = system: MDA-MB-231 breast
SNB-75 CNS = system: SNB-75 CNS
SN12C renal = system: SN12C renal
NCI-H226 lung = system: NCI-H226 lung
MCF7 breast = system: MCF7 breast
UO-31 renal = system: UO-31 renal
A498 renal = system: A498 renal
DU-145 prostate = system: DU-145 prostate
SNB-19 CNS = system: SNB-19 CNS
HCC-2998 colon = system: HCC-2998 colon
K-562 leukemia = system: K-562 leukemia
KM12 colon = system: KM12 colon
NCI-H522 lung = system: NCI-H522 lung
SF-539 CNS = system: SF-539 CNS
HCT-15 colon = system: HCT-15 colon
MDA-MB-435 = system: MDA-MB-435
CAKI-1 renal = system: CAKI-1 renal
SW-620 colon = system: SW-620 colon
HCT-116 colon = system: HCT-116 colon
OVCAR-8 ovarian = system: OVCAR-8 ovarian
MOLT-4 leukemia = system: MOLT-4 leukemia
HS 578T breast = system: HS 578T breast
786-0 renal = system: 786-0 renal
PC-3 prostate = system: PC-3 prostate
RPMI-8226 leukemia = system: RPMI-8226 leukemia
SK-MEL-5 melanoma = system: SK-MEL-5 melanoma
EKVX NSCLC = system: EKVX NSCLC
UACC-62 melanoma = system: UACC-62 melanoma
IGROV1 ovarian = system: IGROV1 ovarian
HT29 colon = system: HT29 colon
NCI-H23 lung = system: NCI-H23 lung
OVCAR-3 ovarian = system: OVCAR-3 ovarian
SF-268 CNS = system: SF-268 CNS
CCRF-CEM leukemia = system: CCRF-CEM leukemia
SR leukemia = system: SR leukemia
MALME-3M melanoma = system: MALME-3M melanoma
COLO 205 colon = system: COLO 205 colon
U251 CNS = system: U251 CNS
SF-295 CNS = system: SF-295 CNS
A549 NSCLC = system: A549 NSCLC
BT-549 breast = system: BT-549 breast
LOX IMVI melanoma = system: LOX IMVI melanoma
OVCAR-5 ovarian = system: OVCAR-5 ovarian
NCI-H460 lung = system: NCI-H460 lung
HOP-92 NSCLC = system: HOP-92 NSCLC
M14 melanoma = system: M14 melanoma
NCI/ADR-RES ovarian = system: NCI/ADR-RES ovarian
HOP-62 NSCLC = system: HOP-62 NSCLC

Q: How did the TGI (ACHN renal) turn out when C=CCOC(=O)CCCCCCCCCCCCCCCOC(=O)C1=C(CCC[C@@H](C)O[Si](C)(C)C(C)(C)C)N=C(N)N2[C@H](CC3(CC/C=C\[C@H](CC)O[Si](C(C)C)(C(C)C)C(C)C)OCCO3)CC[C@@H]12 was run?
A: Its TGI is > 100000 nM.

Q: And the TGI (OVCAR-4 ovarian)?
A: Its TGI is > 100000 nM.

Q: What about the TGI (T-47D breast) of the same molecule?
A: Its TGI is > 100000 nM.

Q: And the TGI (TK-10 renal)?
A: Its TGI is > 100000 nM.

Q: What about the TGI (SK-MEL-28 melanoma) of the same molecule?
A: The TGI was > 100000 nM.

Q: And the TGI (SK-OV-3 ovarian)?
A: Its TGI is > 100000 nM.

Q: What about the TGI (SK-MEL-2 melanoma) of the same molecule?
A: Its TGI is > 100000 nM.

Q: And the TGI (MDA-MB-231 breast)?
A: Its TGI is > 100000 nM.

Q: And the TGI (SNB-75 CNS)?
A: Its TGI is > 100000 nM.

Q: What about the TGI (SN12C renal) of the same molecule?
A: The TGI was > 100000 nM.

Q: And the TGI (NCI-H226 lung)?
A: The TGI was > 100000 nM.

Q: And the TGI (MCF7 breast)?
A: Its TGI is > 100000 nM.

Q: And the TGI (UO-31 renal)?
A: The TGI was > 100000 nM.

Q: And the TGI (A498 renal)?
A: Its TGI is > 100000 nM.

Q: And the TGI (DU-145 prostate)?
A: The TGI was > 100000 nM.

Q: And the TGI (SNB-19 CNS)?
A: The TGI was > 100000 nM.

Q: What about the TGI (HCC-2998 colon) of the same molecule?
A: Its TGI is > 100000 nM.

Q: Which results are given for COc1ccc(CN2c3ccccc3Sc3ccccc32)cc1F?
A: GI50 (ACHN renal): 1250 nM; TGI (ACHN renal): > 100000 nM; GI50 (K-562 leukemia): 383 nM; TGI (K-562 leukemia): > 100000 nM; GI50 (KM12 colon): 471 nM; TGI (KM12 colon): > 100000 nM; GI50 (NCI-H522 lung): 266 nM; TGI (NCI-H522 lung): 804 nM; GI50 (SF-539 CNS): 316 nM; TGI (SF-539 CNS): 5580 nM; GI50 (HCT-15 colon): 435 nM; TGI (HCT-15 colon): > 100000 nM; GI50 (MDA-MB-435): 198 nM; TGI (MDA-MB-435): 469 nM; GI50 (CAKI-1 renal): 399 nM; TGI (CAKI-1 renal): > 100000 nM; GI50 (SW-620 colon): 398 nM; TGI (SW-620 colon): > 100000 nM; GI50 (HCT-116 colon): 437 nM; TGI (HCT-116 colon): > 100000 nM; GI50 (OVCAR-8 ovarian): 712 nM; TGI (OVCAR-8 ovarian): > 100000 nM; GI50 (OVCAR-4 ovarian): 964 nM; TGI (OVCAR-4 ovarian): > 100000 nM; GI50 (MOLT-4 leukemia): 438 nM; TGI (MOLT-4 leukemia): > 100000 nM; GI50 (TK-10 renal): > 100000 nM; TGI (TK-10 renal): > 100000 nM; GI50 (HS 578T breast): 458 nM; TGI (HS 578T breast): > 100000 nM; GI50 (786-0 renal): 615 nM; TGI (786-0 renal): > 100000 nM; GI50 (PC-3 prostate): 448 nM; TGI (PC-3 prostate): > 100000 nM; GI50 (SK-MEL-28 melanoma): > 55000 nM; TGI (SK-MEL-28 melanoma): > 100000 nM; GI50 (RPMI-8226 leukemia): 483 nM; TGI (RPMI-8226 leukemia): > 100000 nM; GI50 (SK-MEL-5 melanoma): 446 nM; TGI (SK-MEL-5 melanoma): > 100000 nM; GI50 (SK-OV-3 ovarian): 559 nM; TGI (SK-OV-3 ovarian): > 100000 nM; GI50 (SK-MEL-2 melanoma): 476 nM; TGI (SK-MEL-2 melanoma): > 100000 nM; GI50 (MDA-MB-231 breast): 917 nM; TGI (MDA-MB-231 breast): > 88100 nM; GI50 (EKVX NSCLC): 780 nM; TGI (EKVX NSCLC): > 100000 nM; GI50 (SNB-75 CNS): 257 nM; TGI (SNB-75 CNS): 98800 nM; GI50 (UACC-62 melanoma): 516 nM; TGI (UACC-62 melanoma): > 100000 nM; GI50 (SN12C renal): 1130 nM; TGI (SN12C renal): > 100000 nM; GI50 (IGROV1 ovarian): 1450 nM; TGI (IGROV1 ovarian): > 100000 nM; GI50 (HT29 colon): 352 nM; TGI (HT29 colon): > 100000 nM; GI50 (NCI-H226 lung): > 47100 nM; TGI (NCI-H226 lung): > 100000 nM; GI50 (NCI-H23 lung): 682 nM; TGI (NCI-H23 lung): > 100000 nM; GI50 (OVCAR-3 ovarian): 312 nM; TGI (OVCAR-3 ovarian): 2040 nM; GI50 (SF-268 CNS): 1140 nM; TGI (SF-268 CNS): > 100000 nM; GI50 (MCF7 breast): 464 nM; TGI (MCF7 breast): > 100000 nM; GI50 (CCRF-CEM leukemia): 407 nM; TGI (CCRF-CEM leukemia): > 100000 nM; GI50 (UO-31 renal): 1120 nM; TGI (UO-31 renal): > 100000 nM; GI50 (SR leukemia): 360 nM; TGI (SR leukemia): > 42700 nM; GI50 (MALME-3M melanoma): > 100000 nM; TGI (MALME-3M melanoma): > 100000 nM; GI50 (COLO 205 colon): 310 nM; TGI (COLO 205 colon): 1360 nM; GI50 (U251 CNS): 561 nM; TGI (U251 CNS): > 100000 nM; GI50 (SF-295 CNS): 323 nM; TGI (SF-295 CNS): > 48400 nM; GI50 (A498 renal): 283 nM; TGI (A498 renal): 927 nM; GI50 (DU-145 prostate): 477 nM; TGI (DU-145 prostate): > 100000 nM; GI50 (A549 NSCLC): 675 nM; TGI (A549 NSCLC): > 100000 nM; GI50 (BT-549 breast): 1340 nM; TGI (BT-549 breast): > 23400 nM; GI50 (LOX IMVI melanoma): 798 nM; TGI (LOX IMVI melanoma): > 100000 nM; GI50 (OVCAR-5 ovarian): > 30400 nM; TGI (OVCAR-5 ovarian): > 100000 nM; GI50 (NCI-H460 lung): 379 nM; TGI (NCI-H460 lung): > 100000 nM; GI50 (SNB-19 CNS): 463 nM; TGI (SNB-19 CNS): > 100000 nM; GI50 (HOP-92 NSCLC): 1250 nM; TGI (HOP-92 NSCLC): > 38900 nM; GI50 (M14 melanoma): 365 nM; TGI (M14 melanoma): > 100000 nM; GI50 (NCI/ADR-RES ovarian): 322 nM; GI50 (HCC-2998 colon): 1110 nM; TGI (HCC-2998 colon): > 35800 nM; GI50 (HOP-62 NSCLC): 4340 nM; TGI (HOP-62 NSCLC): > 100000 nM
